Columns and labels:
[1] = tested on: Human iPSC-derived neural 3D co-cultures (microBrain 3D spheroids); assay: Calcium oscillation assay in iPSC-derived neural 3D spheroids (microBrain 3D, FLIPR Calcium 6 Assay Kit, Peak Pro 2 analysis); format: cell-based; conditions: neural spheroid; for frequency of primary peaks relative to control: control DMSO; for peaks detected in calcium oscillation trace (primary / secondary peaks): recorded ten minutes after 30 minutes treatment
Description: Human iPSC-derived neural 3D co-cultures (StemoniX® microBrain® 3D platform) have been developed as a high-throughput screening platform that more closely resembles the constitution of native human cortical brain tissue. Neural spheroid 3D co-cultures are a physiologically relevant co-culture of iPSC-derived, functionally-active cortical glutamatergic and GABAergic neurons co-differentiated and matured with astrocytes from the same donor. 3D neural spheroids contain a neural network enriched in synapses, creating a highly functional neuronal circuitry and display spontaneous synchronized, readily detectable calcium oscillations.
The neuronal cells in the microBrain® 3D spheroids generate spontaneous synchronized calcium oscillations. Fast kinetic fluorescence imaging by the FLIPR® Penta® system was employed to measure the patterns and frequencies of Ca^2+ oscillations of neuro-spheroids, as monitored by changes in intracellular Ca^2+ levels with the FLIPR® Calcium 6 Assay Kit. A set of known neuromodulators was tested, including agonists and antagonists of NMDA, GABA and AMPA receptors; kainic acid; and analgesic and anti-epileptic drugs. The fluorescence from each well of an entire 384-well plate was recorded simultaneously at a frequency of 2 Hz (0.5 second sampling interval) by high-speed imaging using the FLIPR® Penta® system.
Advanced analysis methods implemented in the ScreenWorks® Peak Pro™ 2 software module provide multi-parametric characterization of Ca^2+ flux oscillation patterns. This phenotypic assay creates readouts such as oscillation frequency, amplitude, peak width, peak rise and decay times, and peak amplitude/spacing irregularity. The effects of modulators of neuronal activity were evaluated by measuring changes in several measurements.
A set of over twenty compounds, including a number of known modulators of neuronal activity, was assayed at different time points and concentrations, and the EC50 values were calculated for compound effects. The time points included 0, 15, 30, 60, 90, and 120 minutes, and 24 hours.

[2] = tested on: human iPSC-derived cardiomyocytes; assay: Calcium oscillation assay in iPSC-derived cardiomyocytes (FLIPR Penta, EarlyTox Cardiotoxicity Kit, Peak Pro 2 analysis); format: cell-based; conditions: for peaks detected in calcium oscillation trace (primary / secondary peaks): recorded two minutes after thirty minutes treatment; for spacing of primary peaks / primary peak prolongation: after thirty minutes treatment
Method: Development of biologically relevant and predictive cell-based assays for compound screening and toxicity assessment is a major challenge in drug discovery. The focus of this study was to establish high-throughput-compatible cardiotoxicity assays using human-induced pluripotent stem cell (iPSC)-derived cardiomyocytes. To assess the utility of human iPSC-derived cardiomyocytes as an in vitro pro-arrhythmia model, the concentration dependence and responses were evaluated for 28 drugs linked to low, intermediate, and high torsades de pointes (TdP) risk categories. […] This assay allows for the characterization of parameters such as beating frequency, amplitude, peak width, and rise and decay times. […] The iPSC-derived cardiomyocytes generate spontaneous synchronized calcium oscillations. High speed fluorescence imaging with the FLIPR® Penta® System was used to measure the patterns and frequencies of the Ca^2+ oscillations in cardiomyocytes as monitored by changes in intracellular Ca^2+ levels with the EarlyToxTM Cardiotoxicity Kit. A set of 28 known cardiotoxic compounds, plus several benchmark compounds and negative controls, were tested in the assay. iPSC-derived Cardiomyocytes: Cryopreserved human iPSC-derived cells from Cellular Dynamics International (CDI) iCell® Cardiomyocytes2 were used for experiments. Cells were thawed and plated at 20,000/well (96-well format) or 10,000/well into 384-well format plates (Corning) and incubated for 7 days in maintenance media. […] In addition, assay-ready 384-Well plates with cardiomyocytes1 were obtained from […], Inc. Plates were shipped pre-plated and allowed to recover after arrival for 2 days. […] The FLIPR® Penta® System equipped with a new high speed camera allows better resolution of calcium oscillation patterns in cardiomyocytes. The ScreenWorks® Peak ProTM 2 software allows complex event analysis and detailed characterization of patterns using more than 20 available pattern descriptors. The assay can be used for testing developing drugs and screening chemicals for potential cardiotoxic hazards.

[3] = 10 μM, after 30 minutes treatment
[4] = 0.3 μM, after 30 minutes treatment

Nc1ccncc1 [4-aminopyridine]
frequency of primary peaks relative to control ([1]; 30 μM, after 30 minutes treatment): increased relative to control
peaks detected in calcium oscillation trace (primary / secondary peaks) ([1]; 30 μM): Primary peaks 118 and secondary peaks 150 are detected

NCCCC(=O)O [GABA]
frequency of primary peaks relative to control [1, 3]: significantly lower frequency than control
peaks detected in calcium oscillation trace (primary / secondary peaks) ([1]; 10 μM): Only primary peaks 118 are detected

COc1ccc(CCN2CCC(Nc3nc4ccccc4n3Cc3ccc(F)cc3)CC2)cc1 [astemizole]
peaks detected in calcium oscillation trace (primary / secondary peaks) ([2]; 1 μM): No valid peaks are detected

NCC(CC(=O)O)c1ccc(Cl)cc1 (stereo not shown) [baclofen]
spacing and amplitude regularity of primary peaks [1, 3]: irregular spacing and amplitude
frequency of primary peaks relative to control [1, 3]: significantly lower frequency than control
peaks detected in calcium oscillation trace (primary / secondary peaks) ([1]; 10 μM): Only primary peaks 118 are detected

CN(CCOc1ccc(NS(C)(=O)=O)cc1)CCc1ccc(NS(C)(=O)=O)cc1 [dofetilide]
spacing of primary peaks ([2]; 10 μM): irregular spacing

CCCCCCCN(CC)CCCC(O)c1ccc(NS(C)(=O)=O)cc1 (stereo not shown) [ibutilide]
primary peak prolongation ([2]; 1 μM): prolongated
peaks detected in calcium oscillation trace (primary / secondary peaks) ([2]; 1 μM): Primary peaks 118 and secondary peaks 150 are present

C=C(C)[C@H]1CN[C@H](C(=O)O)[C@H]1CC(=O)O [kainic acid]
frequency of primary peaks relative to control ([1]; 1 μM, after 30 minutes treatment): increased relative to control
peaks detected in calcium oscillation trace (primary / secondary peaks) ([1]; 1 μM): Primary peaks 118 and numerous secondary peaks 150 are detected

C=C[C@H]1C[N@@]2CC[C@H]1C[C@@H]2[C@@H](O)c1ccnc2ccc(OC)cc12 [quinidine]
primary peak prolongation ([2]; 10 μM): prolongated
spacing of primary peaks ([2]; 10 μM): irregular spacing
peaks detected in calcium oscillation trace (primary / secondary peaks) ([2]; 10 μM): Primary peaks 118 and secondary peaks 150 are detected

CC(C)NCC(O)c1ccc(NS(C)(=O)=O)cc1 (stereo not shown) [sotalol]
primary peak prolongation ([2]; 10 μM): prolongated
spacing of primary peaks ([2]; 10 μM): irregular spacing
peaks detected in calcium oscillation trace (primary / secondary peaks) ([2]; 10 μM): Primary peaks 118 and secondary peaks 150 are detected

CC(C)[C@@H]1NC(=O)[C@H](C)OC(=O)[C@@H](C(C)C)NC(=O)[C@@H](C(C)C)OC(=O)[C@H](C(C)C)NC(=O)[C@H](C)OC(=O)[C@@H](C(C)C)NC(=O)[C@@H](C(C)C)OC(=O)[C@H](C(C)C)NC(=O)[C@H](C)OC(=O)[C@@H](C(C)C)NC(=O)[C@@H](C(C)C)OC1=O [valinomycin]
amplitude and spacing regularity of primary peaks [1, 4]: much more variable
frequency of primary peaks relative to control [1, 4]: much less than control
peaks detected in calcium oscillation trace (primary / secondary peaks) ([1]; 0.3 μM): Primary peaks 118 and secondary peaks 150 are detected
